≈ marks a conversion by molar mass, not a printed value. Counter-ions that a name gives are not always drawn. Like-named read-outs stand apart in the source and are kept apart here.
How the values were obtained:
[1] = tested on: E. cloacae 40011; assay: MIC, agar dilution method; details: Enterobacter cloacae, 40011, 18 h
[2] = tested on: P. aeruginosa 46220 DR-2; assay: MIC, agar dilution method; details: Pseudomonas aeruginosa, 46220DR2, 18 h, read-out: MIC Ceftazidime (Alone)
[3] = tested on: M. morganii 36014; assay: MIC, agar dilution method; details: Morganella morganii, 36014, 18 h
[4] = tested on: E. aerogenes 41006; assay: MIC, agar dilution method; details: Klebsiella aerogenes, 41006, 18 h, read-out: MIC Ceftazidime (Alone)
[5] = tested on: E. cloacae P99; assay: MIC, agar dilution method; details: Enterobacter cloacae, P99, 18 h
[6] = tested on: E. aerogenes 41004; assay: MIC, agar dilution method; details: Klebsiella aerogenes, 41004, 18 h
[7] = tested on: K. pneumoniae CTX1; assay: MIC, agar dilution method; details: Klebsiella pneumoniae, CTX1, 18 h
[8] = tested on: E. aerogenes 41003; assay: MIC, agar dilution method; details: Klebsiella aerogenes, 41003, 18 h, read-out: MIC Ceftazidime (Alone)
[9] = tested on: M. morganii 36010; assay: MIC, agar dilution method; details: Morganella morganii, 36010, 18 h
[10] = tested on: E. coli TEM 3; assay: MIC, agar dilution method; details: Escherichia coli, TEM3, 18 h
[11] = tested on: P. aeruginosa L 46003; assay: MIC, agar dilution method; details: Pseudomonas aeruginosa, L46003, 18 h, read-out: MIC Ceftazidime (Alone)
[12] = tested on: E. coli TEM 7; assay: MIC, agar dilution method; details: Escherichia coli, TEM7, 18 h
[13] = tested on: E. cloacae E. 40009; assay: MIC, agar dilution method; details: Enterobacter cloacae, E.40009, 18 h, read-out: MIC Ceftazidime (Alone)
[14] = target: T1, TEM-1 (Escherichia coli, UniProt P62593); assay: β-lactamase inhibitory activity, spectrophotometric rate assay with nitrocefin; assay type: biochemical; details: TEM-1 isolated from E. coli; nitrocefin substrate; read-out: 50% Inhibitory conc. TEM-1
T1 construct: TEM-1 (isolated from E. coli); endogenous in cells; host or cells: E. coli (enzyme isolated from the bacterium)
T1 sequence (P62593 24-286 limits assumed): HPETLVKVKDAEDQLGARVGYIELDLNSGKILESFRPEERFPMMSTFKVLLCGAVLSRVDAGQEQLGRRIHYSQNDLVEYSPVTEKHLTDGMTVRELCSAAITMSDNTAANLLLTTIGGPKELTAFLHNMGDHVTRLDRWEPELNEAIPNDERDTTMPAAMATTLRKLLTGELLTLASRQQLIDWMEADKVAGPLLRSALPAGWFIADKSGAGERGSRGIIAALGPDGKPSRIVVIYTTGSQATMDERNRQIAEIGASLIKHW
Description: (§1) The inhibitory activities of present compounds against TEM-1 (isolated from E. coli), CTX-1 (isolated from K. pneumoniae), cephalosporinase (isolated from P. aeruginoase 46012) was measured by spectrophotometric rate assay using […] and using nitrocefin as a substrate [J. Antimicrob. Chemother., 28, pp. 775-776 (1991)].

[15] = target: T2, cephalosporinase (Pseudomonas aeruginosa, UniProt P24735); assay: as above; assay type: biochemical; details: cephalosporinase isolated from P. aeruginoase 46012; nitrocefin substrate; read-out: 50% Inhibitory conc. Cephalosporinase
T2 construct: nitrocefin spectrophotometric assay
T2 sequence (P24735 27-397): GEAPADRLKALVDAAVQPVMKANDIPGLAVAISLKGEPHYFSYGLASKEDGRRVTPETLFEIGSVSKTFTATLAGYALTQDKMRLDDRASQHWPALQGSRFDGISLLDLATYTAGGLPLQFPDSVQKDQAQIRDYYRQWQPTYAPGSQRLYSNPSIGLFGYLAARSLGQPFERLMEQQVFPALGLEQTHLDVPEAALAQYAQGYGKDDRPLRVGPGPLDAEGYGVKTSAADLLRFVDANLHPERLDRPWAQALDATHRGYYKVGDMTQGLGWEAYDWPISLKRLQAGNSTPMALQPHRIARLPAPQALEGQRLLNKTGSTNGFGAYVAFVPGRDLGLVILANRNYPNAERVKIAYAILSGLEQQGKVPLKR
Description: as §1

[16] = tested on: S. aureus 80K; assay: MIC, agar dilution method; details: Staphylococcus aureus, 18 h, read-out: MIC Piperacillin Alone
[17] = tested on: E. cloacae 40015; assay: MIC, agar dilution method; details: Enterobacter cloacae, 40015, 18 h, read-out: MIC Piperacillin Alone
[18] = tested on: E. cloacae E. 4009; assay: MIC, agar dilution method; details: Enterobacter cloacae, E.4009, 18 h, read-out: MIC Piperacillin Alone
[19] = tested on: E. coli SHV 1; assay: MIC, agar dilution method; details: Escherichia coli, SHV1, 18 h, read-out: MIC Piperacillin Alone
[20] = tested on: S. marcescens 200L; assay: MIC, agar dilution method; details: Serratia marcescens, 18 h, read-out: MIC Piperacillin Alone
[21] = tested on: E. coli TEM 1; assay: MIC, agar dilution method; details: Escherichia coli, TEM1, 18 h, read-out: MIC Piperacillin Alone
[22] = tested on: P. vulgaris CT106; assay: MIC, agar dilution method; details: Proteus vulgaris, CT106, 18 h, read-out: MIC Piperacillin Alone
[23] = tested on: E. coli OXA 3; assay: MIC, agar dilution method; details: Escherichia coli, OXA3, 18 h, read-out: MIC Piperacillin Alone
[24] = tested on: E. aerogenes; assay: MIC, agar dilution method; details: Klebsiella aerogenes, 18 h, read-out: MIC Piperacillin Alone
[25] = tested on: S. aureus 54K; assay: MIC, agar dilution method; details: Staphylococcus aureus, 18 h, read-out: MIC Piperacillin Alone
[26] = tested on: S. aureus 1628; assay: MIC, agar dilution method; details: Staphylococcus aureus, 1628, 18 h, read-out: MIC Piperacillin Alone
[27] = tested on: K. pneumoniae 336L; assay: MIC, agar dilution method; details: Klebsiella pneumoniae, 18 h, read-out: MIC Piperacillin Alone
[28] = tested on: A. calcoaceticus 553L; assay: MIC, agar dilution method; details: Acinetobacter calcoaceticus, 18 h, read-out: MIC Piperacillin Alone
[29] = tested on: E. coli OXA 1; assay: MIC, agar dilution method; details: Escherichia coli, OXA1, 18 h, read-out: MIC Piperacillin Alone
[30] = tested on: C. freundii 2046E; assay: MIC, agar dilution method; details: Citrobacter freundii, 18 h, read-out: MIC Piperacillin Alone
[31] = tested on: P. aeruginosa L 46007; assay: MIC, agar dilution method; details: Pseudomonas aeruginosa, L46007, 18 h, read-out: MIC Piperacillin Alone
[32] = read-out: MIC Ceftazidime (Alone)
[33] = read-out: MIC Piperacillin Alone

`CC(C)(O/N=C(\C(=O)N[C@@H]1C(=O)N2C(C(=O)[O-])=C(C[n+]3ccccc3)CS[C@H]12)c1csc(N)n1)C(=O)O` [Ceftazidime, ceftazidime] gave an MIC [1, 32] of 50 µg/mL (≈ 91.5 µM), an MIC [2] of 25 µg/mL (≈ 45.7 µM) and an MIC [3, 32] of 25 µg/mL (≈ 45.7 µM). For the same compound, the MIC [4] was 100 µg/mL (≈ 183 µM), the MIC [5, 32] was 100 µg/mL (≈ 183 µM) and the MIC [6, 32] was 25 µg/mL (≈ 45.7 µM). For the same compound, the MIC [7, 32] was 100 µg/mL (≈ 183 µM), the MIC [8] was 25 µg/mL (≈ 45.7 µM) and the MIC [9, 32] was 200 µg/mL (≈ 366 µM). For the same compound, the MIC [10, 32] was 25 µg/mL (≈ 45.7 µM), the MIC [11] was 200 µg/mL (≈ 366 µM) and the MIC [12, 32] was 25 µg/mL (≈ 45.7 µM). It also gave an MIC [13] of 100 µg/mL (≈ 183 µM).
For `CON=C[C@@]1(C)[C@H](C(=O)O)N2C(=O)C[C@H]2S1(=O)=O` [Compound 3, sodium (2S, 3R, 5R)-3-formyl-3-methyl-7-oxo-4-thia-1-azabicyclo[3.2.0]heptane-2-carboxylate, 3^1-(O-methyloxime), 4,4-dioxide], the IC50 [14] was 0.3 µM and the IC50 [15] was 1.9 µM.
`C[C@]1(C=NO)[C@H](C(=O)O)N2C(=O)C[C@H]2S1(=O)=O` [Compound 5, sodium (2S, 3R, 5R)-3-formyl-3-methyl-7-oxo-4-thia-1-azabicyclo[3.2.0]heptane-2-carboxylate, 3^1-(hydroxyloxime), 4,4-dioxide] was tested, and the IC50 [14] was 0.58 µM and the IC50 [15] was 7 µM.
With `CCCON=C[C@@]1(C)[C@H](C(=O)O)N2C(=O)C[C@H]2S1(=O)=O` [Compound 8, sodium (2S, 3R, 5R)-3-formyl-3-methyl-7-oxo-4-thia-1-azabicyclo[3.2.0]heptane-2-carboxylate, 3^1-(O-propyloxime), 4,4-dioxide] the IC50 [14] was 0.1 µM and the IC50 [15] was 1 µM.
`CCON=C[C@@]1(C)[C@H](C(=O)O)N2C(=O)C[C@H]2S1(=O)=O` [Compound 10, sodium (2S, 3R, 5R]-3-formyl-3-methyl-7-oxo-4-thia-1-azabicyclo[3.2.0]heptane-2-carboxylate, 3^1-(O-ethyloxime), 4,4-dioxide] gave an IC50 [14] of 0.5 µM and an IC50 [15] of 1 µM.
`C[C@]1(C=NOCC(=O)O)[C@H](C(=O)O)N2C(=O)C[C@H]2S1(=O)=O` [Compound 28, (2S, 3R, 5R)-3-formyl-3-methyl-7-oxo-4-thia-1-azabicyclo[3.2.0]heptane-2-carboxylicacid, 3^1-[O-(carboxymethyl)oxime], disodium salt, 4,4-dioxide] was tested, and the IC50 [14] was 0.0048 µM and the IC50 [15] was 1 µM.
`CC(=O)NN=C[C@@]1(C)[C@H](C(=O)O)N2C(=O)C[C@H]2S1(=O)=O` [Compound 38, sodium (2S, 3R, 5R)-3-formyl-3-methyl-7-oxo-4-thia-1-azabicyclo[3.2.0]heptane-2-carboxylate, 3^1-(acetylhydrazone), 4,4-dioxide] was tested, and the IC50 [14] was 0.0014 µM and the IC50 [15] was 0.6 µM.
With `CCN1CCN(C(=O)N[C@@H](C(=O)N[C@@H]2C(=O)N3[C@@H]2SC(C)(C)[C@@H]3C(=O)O)c2ccccc2)C(=O)C1=O` [Piperacillin, piperacillin] the MIC [1, 33] was 50 µg/mL (≈ 96.6 µM), the MIC [16] was 12.5 µg/mL (≈ 24.2 µM) and the MIC [17] was 50 µg/mL (≈ 96.6 µM). The MIC [18] was 100 µg/mL (≈ 193 µM), the MIC [19] was 50 µg/mL (≈ 96.6 µM) and the MIC [3, 33] was 50 µg/mL (≈ 96.6 µM). For the same compound, the MIC [20] was 100 µg/mL (≈ 193 µM), the MIC [21] was 400 µg/mL (≈ 773 µM) and the MIC [22] was 400 µg/mL (≈ 773 µM). For the same compound, the MIC [5, 33] was 200 µg/mL (≈ 386 µM), the MIC [23] was 3.13 µg/mL (≈ 6.05 µM) and the MIC [24] was 25 µg/mL (≈ 48.3 µM). For the same compound, the MIC [25] was 12.5 µg/mL (≈ 24.2 µM), the MIC [6, 33] was 25 µg/mL (≈ 48.3 µM) and the MIC [7, 33] was over 40 µg/mL. For the same compound, the MIC [26] was 400 µg/mL (≈ 773 µM), the MIC [9, 33] was 200 µg/mL (≈ 386 µM) and the MIC [27] was 200 µg/mL (≈ 386 µM). The MIC [28] was over 400 µg/mL, the MIC [29] was 25 µg/mL (≈ 48.3 µM) and the MIC [10, 33] was 100 µg/mL (≈ 193 µM). For the same compound, the MIC [30] was 100 µg/mL (≈ 193 µM), the MIC [12, 33] was 100 µg/mL (≈ 193 µM) and the MIC [31] was 100 µg/mL (≈ 193 µM).

Reference: patent publication US5686441A, “Penam sulfones as β-lactamase inhibitors” (Syphar Laboratories, Inc., priority 1995, dated 1997)
